In the supplement of paper PMC13380429:

How the values were obtained:
Caco-2 [1] = assay: cell viability relative to DMSO; higher = less toxic; details: 72 h
Calu-3 [2] = assay: as above; details: 72 h
HepG2 [3] = assay: as above; details: 72 h
Vero E6 [4] = assay: as above; details: 72 h
U2OS [5] = assay: as above; details: 72 h
[6] = tested on: A549-ACE2 infected with SARS-CoV-2; assay: cell count relative to DMSO; higher = less toxic; details: 24 h
Caco-2 [7] = assay: relative viability EC50 (midpoint between 100% and the lowest measured viability); higher = less toxic; details: 72 h
Calu-3 [8] = assay: as above; details: 72 h
HepG2 [9] = assay: as above; details: 72 h
Vero E6 [10] = assay: as above; details: 72 h
U2OS [11] = assay: as above; details: 72 h
[12] = tested on: A549-ACE2 infected with SARS-CoV-2; assay: morphology score (similarity to uninfected cells); higher = more like uninfected cells; details: 24 h
[13] = tested on: A549-ACE2 infected with SARS-CoV-2; assay: SARS-CoV-2 infection rate relative to DMSO; higher = more infection; details: 24 h
Caco-2 [14] = assay: drug sensitivity score (DSS) for viability; higher = more toxic; extreme values may be limits of the assay; details: 72 h
Calu-3 [15] = assay: as above; details: 72 h
HepG2 [16] = assay: as above; details: 72 h
Vero E6 [17] = assay: as above; details: 72 h
U2OS [18] = assay: as above; details: 72 h
A549-ACE2 [19] = assay: phospholipidosis EC50; higher = less potent phospholipidosis inducer
A549-ACE2 [20] = assay: drug-induced phospholipidosis relative to tamoxifen; higher = more phospholipidosis

N#Cc1ccc(N2N=C3c4ccc(C(=O)O)cc4CC[C@@H]3[C@@H]2C2CCCC2)cc1Cl
Details | SARS-CoV-2 infection rate, [13] [%] | cell count, [6] [%] | cell viability, Caco-2 [1] [%] | cell viability, Calu-3 [2] [%] | cell viability, HepG2 [3] [%] | cell viability, U2OS [5] [%] | cell viability, Vero E6 [4] [%] | morphology score, [12]
1 nM | – | – | 92 | 101 | 93.1 | 97.1 | 96 | –
10 nM | – | – | 98.1 | 97.6 | 96.3 | 96.4 | 106 | –
100 nM | – | – | 105 | 95 | 114 | 99.4 | 90 | –
0.3 µM | 101 | 100 | – | – | – | – | – | -0.02
1000 nM | – | – | 95.1 | 92.5 | 95.5 | 97.7 | 98.5 | –
3 µM | 99 | 107 | – | – | – | – | – | 0.24
10000 nM | – | – | 101 | 106 | 103 | 99.6 | 117 | –
10 µM | 98 | 96 | – | – | – | – | – | -0.01
30 µM | 75 | 97 | – | – | – | – | – | 0.57

Details | drug sensitivity score | relative viability EC50 [µM]
Caco-2 [7] | – | > 10
Caco-2 [14] | 0 | –
Calu-3 [8] | – | > 10
Calu-3 [15] | 0 | –
HepG2 [9] | – | > 10
HepG2 [16] | 0 | –
U2OS [11] | – | > 10
U2OS [18] | 0 | –
Vero E6 [10] | – | > 10
Vero E6 [17] | 0 | –

CN1CCC[C@@H]1CCO[C@](C)(c1ccccc1)c1ccc(Cl)cc1 [clemastine]
Details | SARS-CoV-2 infection rate [%] | cell count [%] | cell viability [%] | morphology score | phospholipidosis EC50 [µM]
A549-ACE2 [19], 24 h | – | – | – | – | 3.92
A549-ACE2 [19], 48 h | – | – | – | – | 4.81
A549-ACE2 [19], 72 h | – | – | – | – | 4.96
Calu-3 [2], 1 nM | – | – | 96.8 | – | –
Calu-3 [2], 10 nM | – | – | 101 | – | –
Calu-3 [2], 100 nM | – | – | 91.8 | – | –
Calu-3 [2], 1000 nM | – | – | 105 | – | –
Calu-3 [2], 10000 nM | – | – | 73.9 | – | –
HepG2 [3], 1 nM | – | – | 108 | – | –
HepG2 [3], 10 nM | – | – | 95.6 | – | –
HepG2 [3], 100 nM | – | – | 104 | – | –
HepG2 [3], 1000 nM | – | – | 96.5 | – | –
HepG2 [3], 10000 nM | – | – | 78.5 | – | –
U2OS [5], 1 nM | – | – | 95.4 | – | –
U2OS [5], 10 nM | – | – | 101 | – | –
U2OS [5], 100 nM | – | – | 96.1 | – | –
U2OS [5], 1000 nM | – | – | 103 | – | –
U2OS [5], 10000 nM | – | – | 96.7 | – | –
Vero E6 [4], 1 nM | – | – | 102 | – | –
Vero E6 [4], 10 nM | – | – | 96.5 | – | –
Vero E6 [4], 100 nM | – | – | 96.8 | – | –
Vero E6 [4], 1000 nM | – | – | 95.6 | – | –
Vero E6 [4], 10000 nM | – | – | 96.3 | – | –
[6], 0.3 µM | – | 99 | – | – | –
[6], 3 µM | – | 120 | – | – | –
[6], 10 µM | – | 123 | – | – | –
[6], 30 µM | – | 104 | – | – | –
[12], 0.3 µM | – | – | – | 0.04 | –
[12], 3 µM | – | – | – | 0.8 | –
[12], 10 µM | – | – | – | 0.86 | –
[12], 30 µM | – | – | – | 0.52 | –
[13], 0.3 µM | 100 | – | – | – | –
[13], 3 µM | 43 | – | – | – | –
[13], 10 µM | 32 | – | – | – | –
[13], 30 µM | 21 | – | – | – | –

Details | drug sensitivity score | relative viability EC50 [µM]
Caco-2 [7] | – | > 10
Caco-2 [14] | 0 | –
Calu-3 [15] | 0.8 | –
HepG2 [9] | – | > 10
HepG2 [16] | 1.2 | –
U2OS [11] | – | > 10
U2OS [18] | 0 | –
Vero E6 [10] | – | > 10
Vero E6 [17] | 0 | –

drug-induced phospholipidosis [%], A549-ACE2 [20]
Details | 0.3 µM | 0.833333 µM | 3.33333 µM | 6.66667 µM | 10 µM | 30 µM
24 h | 0.63 | 8.33 | 38.5 | 87.2 | 102 | 98.4
48 h | 1.7 | 9.62 | 25.8 | 80.6 | 96.8 | –
72 h | 4.55 | 9.81 | 21.5 | 79.5 | 95.6 | –
